Source: patent publication US20090068290A1, “BIFEPRUNOX DOSES FOR TREATING SCHIZOPHRENIA” (priority 2006, published 2009)

Key:
[1] = system: patients with chronic schizophrenia; assay: PANSS responders (reduction in PANSS total score), Clinical Study Four; type: in vivo, human; details: FAS, LOCF
Description: (§1) METHODOLOGY: This study was a multinational, multicenter, randomized, double-blind, parallel-group, placebo-controlled, fixed-dose study. The study consisted of a 3- to 6-day antipsychotic-free run-in period, after which patients were randomised to 6 months of double-blind treatment with fixed doses of bifeprunox (20 mg/day (BX20) or 30 mg/day (BX30)) or placebo (PBO). Patients allocated to the BX groups were up-titrated from 0.25 mg/day over 7 days (BX20) or 8 days (BX30), and then continued on these doses for the remainder of the study. […] At predetermined time points, blood samples were obtained for drug concentration analysis of BX and its major metabolites (3′- and 4′-sulfate conjugates of BX), and pharmaco-economic assessments were performed.
CLINICAL STUDY FOUR: The proportion of patients with a ≧25%, ≧35%, ≧45%, or ≧55% reduction in PANSS total score relative to baseline at each visit (PANSS responders) is shown by LOCF (FIG. 4).

[2] = Lipid profile and fasting glucose, Clinical Study Four; type: in vivo, human
Description: as §1

[3] = Pooled metabolic analysis, 6-week studies: lipid profile
Excerpt: (§2) OBJECTIVE: To examine the metabolic effects of bifeprunox in patients with acute and stable schizophrenia.
(§3) METHODS: Metabolic data was compiled from one 6-month and four 6-week studies (i.e., a treatment period) of bifeprunox in patients with stable and acute schizophrenia, respectively. In the 6-month study, patients received bifeprunox (n=331) or placebo (PBO) (n=166). […] Metabolic evaluations included body weight, body mass index (BMI), plasma glucose and lipid profiles. Fasting glucose and lipid values were assessed in one 6-week study and in the 6-month study. Triglyceride:HDL ratio (TG:HDL) was calculated as a marker of insulin resistance. No statistical analyses were performed; only descriptive statistics are presented.

[4] = Pooled metabolic analysis, 6-week studies: glucose
Excerpt: as §2, §3

[5] = Pooled metabolic analysis, 6-month study: glucose
Excerpt: as §2, §3

[6] = BX20 (bifeprunox 20 mg), Fasting
[7] = BX20 (bifeprunox 20 mg), Non-fasting
[8] = BX30 (bifeprunox 30 mg), Fasting
[9] = BX30 (bifeprunox 30 mg), Non-fasting
[10] = fasting, endpoint, 6-week studies, BX total, OLZ 15 mg
[11] = non-fasting, endpoint, 6-week studies, BX total, RISP 6 mg, OLZ 15 mg, HAL 10 mg

## O=c1[nH]c2cccc(N3CCN(Cc4cccc(-c5ccccc5)c4)CC3)c2o1 [Bifeprunox, 7-[4-([1,1′-biphenyl]-3-ylmethyl)-1-piperazinyl]-2(3H)-benzoxazolone]
[1]; listed as BX20
  proportion of patients with at least a 25% reduction in PANSS total score versus PBO: statistically significantly larger than that in the PBO group from Week 9 onwards
[1]; listed as BX30
  proportion of patients with at least a 25% reduction in PANSS total score versus PBO: statistically significantly larger than that in the PBO group at Month 5 only
[2]; BX20
  adjusted mean fasting glucose increase from baseline to Month 6: 0.13 mmol/L
[2]; [6]
  Cholesterol, total, Mean change from baseline to Month 6: -0.18 mmol/L
  HDL, direct, Mean change from baseline to Month 6: 0.07 mmol/L
  LDL, calculated, Mean change from baseline to Month 6: -0.1 mmol/L
  Triglycerides, Mean change from baseline to Month 6: -0.08 mmol/L
  VLDL, calculated, Mean change from baseline to Month 6: -0.03 mmol/L
[2]; [7]
  Cholesterol, total, Mean change from baseline to Month 6: -0.42 mmol/L
  HDL, direct, Mean change from baseline to Month 6: 0.12 mmol/L
  LDL, calculated, Mean change from baseline to Month 6: -0.35 mmol/L
  Triglycerides, Mean change from baseline to Month 6: -0.41 mmol/L
  VLDL, calculated, Mean change from baseline to Month 6: -0.19 mmol/L
[2]; BX20, fasting
  adjusted mean HDL cholesterol change from baseline to Month 6: 0.07 mmol/L
  adjusted mean triglycerides change from baseline to Month 6: -0.16 mmol/L
[2]; BX20, non-fasting
  adjusted mean HDL cholesterol change from baseline to Month 6: 0.08 mmol/L
  adjusted mean triglycerides change from baseline to Month 6: -0.21 mmol/L
[2]; BX30
  adjusted mean fasting glucose increase from baseline to Month 6: 0.09 mmol/L
[2]; [8]
  Cholesterol, total, Mean change from baseline to Month 6: -0.22 mmol/L
  HDL, direct, Mean change from baseline to Month 6: 0.05 mmol/L
  LDL, calculated, Mean change from baseline to Month 6: -0.12 mmol/L
  Triglycerides, Mean change from baseline to Month 6: -0.40 mmol/L
  VLDL, calculated, Mean change from baseline to Month 6: -0.16 mmol/L
[2]; [9]
  Cholesterol, total, Mean change from baseline to Month 6: -0.10 mmol/L
  HDL, direct, Mean change from baseline to Month 6: 0.08 mmol/L
  LDL, calculated, Mean change from baseline to Month 6: -0.12 mmol/L
  Triglycerides, Mean change from baseline to Month 6: 0.06 mmol/L
  VLDL, calculated, Mean change from baseline to Month 6: 0.03 mmol/L
[2]; BX30, fasting
  adjusted mean HDL cholesterol change from baseline to Month 6: 0.07 mmol/L
  adjusted mean triglycerides change from baseline to Month 6: -0.37 mmol/L
[2]; BX30, non-fasting
  adjusted mean HDL cholesterol change from baseline to Month 6: 0.08 mmol/L
  adjusted mean triglycerides change from baseline to Month 6: -0.03 mmol/L
[3]; 6-week studies
  change in total cholesterol (TC): -0.40 mmol/L
  decrease in total cholesterol (TC): 8%
  non-fasting total cholesterol and triglyceride at endpoint (in words): greatest decreases
[3]; 6 week studies
  change in TG: -0.44 mmol/L
  decrease in TG: 24%
[3]; [10]
  Fasting HDL, Mean change (SD): −0.5 (10.7) mg/dL
  Fasting HDL, Percentage mean change: −1.0%
  Total cholesterol, Mean change (SD): −15.5 (32.9) mg/dL
  Total cholesterol, Percentage mean change: −7.9%
  Triglyceride:HDL ratio, Mean change (SD): −0.4 (0.9)
  Triglyceride:HDL ratio, Percentage mean change: −23.8%
  Triglycerides, Mean change (SD): −38.9 (73.5) mg/dL
  Triglycerides, Percentage mean change: −24.2%
[3]; [11]
  Total cholesterol, Mean change (SD): −12.9 (0.8) mg/dL
  Triglycerides, Mean change (SD): −38.7 (1.3) mg/dL
[4]
  change in mean fasting glucose at endpoint: -1.44 mg/dL
  decrease in mean fasting glucose at endpoint: 1.6%
[5]; 6-month study
  change in mean fasting glucose at endpoint: +4.32 mg/dL
[5]; bifeprunox total group
  change in non-fasting glucose at endpoint: +1.16 mg/dL
